Reference: US11534457B2, “Use of dextran sulfate” (priority 2017, dated 2022)

Test system: severe traumatic brain injury (sTBI)
Assay: sTBI in rats, brain gene expression arrays and pathway analysis (Example 9)
Type: in vivo, Male Wistar rats
Set-up: key to z score, canonical pathway Dendritic Cell Maturation / z score, canonical pathway Adrenomedullin Signaling pathway / z score, canonical pathway Endothelin-1 Signaling / effect on canonical pathway Adrenomedullin Signaling pathway / effect on canonical pathway Endothelin-1 Signaling / effect on canonical pathway Dendritic Cell Maturation / Ingenuity canonical pathway Adrenomedullin signaling pathway, z score / Ingenuity canonical pathway FLT3 Signaling in Hematopoietic Progenitor Cells, z score / Ingenuity canonical pathway Opioid Signaling Pathway, z score / Ingenuity canonical pathway VDR/RXR Activation, z score / Ingenuity canonical pathway Neuropathic Pain Signaling In Dorsal Horn Neurons, z score / Ingenuity canonical pathway STAT3 Pathway, z score / Ingenuity canonical pathway IL-1 Signaling, z score / Ingenuity canonical pathway IL-6 Signaling, z score / Ingenuity canonical pathway NF-κB Signaling, z score / Ingenuity canonical pathway Role of NFAT in Cardiac Hypertrophy, z score / Ingenuity canonical pathway PPARα/RXRα Activation, z score: *: ambiguous effect
Settings: TBI + 5 mg/kg LMW-DS
Procedure: The experimental protocol used in this study was approved by the Ethical Committee of the Catholic University of Rome, according to international standards and guidelines for animal care. Male Wistar rats of 300-350 g body weight were fed with standard laboratory diet and water ad libitum in a controlled environment. As the anesthetic mixture, the animals received 35 mg/kg b.w. ketamine and 0.25 mg/kg body weight midazolam by i.p. injection. Severe traumatic brain injury (sTBI) was induced by dropping a 450 g weight from 2 m height on to the rat head that had been protected by a metal disk previously fixed on the skull, according to the “weight drop” impact acceleration model (Marmarou et al., A new model of diffuse brain injury in rats. Part I: Pathophysiology and biomechanics. J Neurosurg. 1994; 80: 291-300). […] At the end of each period of treatment, rats were anesthetized again and then immediately sacrificed.
LMW-DS (Tikomed AB) was provided at a stock concentration of 20 mg/ml and was kept in a temperature-monitored refrigerator at 4° C. LMW-DS aliquots were diluted to the appropriate dosing concentration in sterile saline prior to delivery of a single subcutaneous injection.
Three doses of LMW-DS were administered subcutaneously 30 minutes post-TBI. The animals were sacrificed at 2 days post-TBI. The animals were divided into the following subgroups:
Three doses of LMW-DS were administered subcutaneously 30 minutes post-TBI. The animals were sacrificed at 7 days post-TBI. The animals were divided into the following subgroups:
An in vivo craniectomy was performed on all animals during anesthesia. After carefully removing the rat's skull, the brain was exposed and removed with a surgical spatula and quickly dropped in RNALater and preserved at 4° C. for further processing.
RNA extraction and array processing was carried out by SourceBioscience. The arrays used were the Agilent Rat expression arrays.
Statistical analysis was carried out using the Metaboanalyst software package. Gene expression changes of 10% with a p<0.05 were regarded as significant.
Pathway analysis of the differentially regulated genes was carried out using the Ingenuity pathway analysis package. The analysis was performed with special reference to pathways and molecular processes and diseases associated with neurodegenerative disease, including dementia, Alzheimer's disease, ALS, TBI and stroke, and with scarring and fibrosis, including glaucoma and normal pressure hydrocephalus (NPH) after subarachnoid haemorrhage.

[1] = 7 days after TBI, relative to control

## low molecular weight dextran sulfate [LMW-DS]
7 days after TBI
  z score: Cellular homeostasis: 1.615
  z score: Chemotaxis: 1.873
  z score: Concentration of lipid: −0.575
  z score: Development of body axis: 1.213
  z score: Development of body trunk: 1.09
  z score: Development of carcinoma: 0.152
  z score: Development of connective tissue cells: 1.638
  z score: Development of epithelial tissue: 0.262
  z score: Development of genitourinary system: −0.336
  z score: Development of head: 1.213
  z score: Development of neurons: 1.106
  z score: Development of sensory organ: 0.669
  z score: Development of vasculature: 0.295
  z score: Differentiation of bone: 1.012
  z score: Differentiation of bone cells: 0.85
  z score: Differentiation of connective tissue cells: 0.769
  z score: Digestive organ tumor: −1.348
  z score: Digestive system cancer: −1.792
  z score: Endocrine gland tumor: −0.067
  z score: Expression of RNA: 1.797
  z score: Extracranial solid tumor: 0.369
  z score: Failure of kidney: 0.555
  z score: Formation of eye: 1.664
  z score: Gastrointestinal tumor: −1.215
  z score: Genital tumor: 0.305
  z score: Genitourinary carcinoma: 1.131
  z score: Genitourinary tumor: 1.388
  z score: Glucose metabolism disorder: 0.439
  z score: Growth of connective tissue: −0.324
  z score: Growth of epithelial tissue: −1.58
  z score: Growth of tumor: 2.295
  z score: Head and neck cancer: −1.154
  z score: Head and neck tumor: −0.355
  z score: Hematologic cancer: −1.725
  z score: Hematologic cancer of cells: −1.486
  z score: Hematopoietic neoplasm: −1.002
  z score: Intestinal tumor: −1.09
  z score: Invasion of cells: 1.32
  z score: Leukocyte migration: 3.062
  z score: Lymphatic system tumor: −0.956
  z score: Lymphocytic cancer: −1.486
  z score: Lymphocytic neoplasm: −1.486
  z score: Lymphoid cancer: −0.956
  z score: Lymphoma: −1.224
  z score: Lymphoproliferative disorder: −1.727
  z score: Lymphoreticular neoplasm: −1.224
  z score: Malignant genitourinary solid tumor: 0.346
  z score: Malignant solid tumor: 0.423
  z score: Microtubule dynamics: 1.82
  z score: Migration of cells: 2.659
  z score: Migration of endothelial cells: 2.16
  z score: Morbidity or mortality: −2.848
  z score: Necrosis: 0.228
  z score: Necrosis of epithelial tissue: 1.674
  z score: Neoplasia of cells: 0.474
  z score: Neoplasia of leukocytes: −1.486
  z score: Non-hematologic malignant neoplasm: −0.243
  z score: Non-hematological solid tumor: 0.021
  z score: Non-melanoma solid tumor: 0.01
  z score: Obesity: 0.493
  z score: Organismal death: −2.885
  z score: Organization of cytoskeleton: 2.174
  z score: Pelvic tumor: 0.445
  z score: Peripheral vascular disease: 1
  z score: Proliferation of connective tissue cells: −0.747
  z score: Proliferation of epithelial cells: −1.196
  z score: Quantity of cells: 0.634
  z score: Quantity of connective tissue: 0.609
  z score: Renal impairment: 0.555
  z score: Secretion of molecule: 1.386
  z score: Sensory system development: −0.307
  z score: Size of body: 0.748
  z score: Skin lesion: −0.111
  z score: Skin tumor: −2.396
  z score: Solid tumor: 1.29
  z score: Synthesis of lipid: 1.937
  z score: Transcription: 1.317
  z score: Transcription of RNA: 1.221
  z score: Transport of molecule: 1.854
  z score: Tumorigenesis of tissue: −0.832
  z score: Vasculogenesis: 0.507
[1]
  Ingenuity canonical pathway Acute Phase Response Signaling, z score: 1.89
  Ingenuity canonical pathway Adrenomedullin signaling pathway, z score: −0.632
  Ingenuity canonical pathway Cardiac Hypertrophy Signaling, z score: 1
  Ingenuity canonical pathway Colorectal Cancer Metastasis Signaling, z score: −0.378
  Ingenuity canonical pathway Dendritic Cell Maturation, z score: 1.897
  Ingenuity canonical pathway ERK5 Signaling, z score: −0.447
  Ingenuity canonical pathway ERK/MAPK Signaling, z score: 1
  Ingenuity canonical pathway Endothelin-1 Signaling, z score: 1.633
  Ingenuity canonical pathway Fcγ Receptor-mediated Phagocytosis in Macrophages and Monocytes, z score: 2.236
  Ingenuity canonical pathway GNRH Signaling, z score: 2
  Ingenuity canonical pathway HMGB1 Signaling, z score: 1.134
  Ingenuity canonical pathway IL-1 Signaling, z score: 1
  Ingenuity canonical pathway IL-6 Signaling, z score: 1
  Ingenuity canonical pathway IL-8 Signaling, z score: 2.646
  Ingenuity canonical pathway ILK Signaling, z score: 1.89
  Ingenuity canonical pathway Leukocyte Extravasation Signaling, z score: 1.342
  Ingenuity canonical pathway NF-κB Signaling, z score: *
  Ingenuity canonical pathway Neuroinflammation Signaling Pathway, z score: 1.941
  Ingenuity canonical pathway Opioid Signaling Pathway, z score: *
  Ingenuity canonical pathway Osteoarthritis Pathway, z score: −1
  Ingenuity canonical pathway PI3K Signaling in B Lymphocytes, z score: 1.89
  Ingenuity canonical pathway PKCθ Signaling in T Lymphocytes, z score: 2
  Ingenuity canonical pathway PPAR Signaling, z score: −1.342
  Ingenuity canonical pathway PPARα/RXRα Activation, z score: *
  Ingenuity canonical pathway Phospholipase C Signaling, z score: 1
  Ingenuity canonical pathway Production of Nitric Oxide and Reactive Oxygen Species in Macrophages, z score: 2.236
  Ingenuity canonical pathway Protein Kinase A Signaling, z score: −1.342
  Ingenuity canonical pathway Role of NFAT in Cardiac Hypertrophy, z score: *
  Ingenuity canonical pathway Role of NFAT in Regulation of the Immune Response, z score: 2.53
  Ingenuity canonical pathway STAT3 Pathway, z score: *
  Ingenuity canonical pathway Signaling by Rho Family GTPases, z score: 1
  Ingenuity canonical pathway Synaptic Long Term Depression, z score: 1
  Ingenuity canonical pathway VDR/RXR Activation, z score: *
  Ingenuity canonical pathway Wnt/β-catenin Signaling, z score: −1
  Ingenuity canonical pathway cAMP-mediated signaling, z score: −2
After 7 days, TBI: Activated
  Diseases or functions annotation: Apoptosis: Inhibited
  Diseases or functions annotation: Apoptosis of tumor cell lines: Inhibited
  Diseases or functions annotation: Bleeding: Inhibited
  Diseases or functions annotation: Breast or colorectal cancer: Inhibited
  Diseases or functions annotation: Breast or ovarian cancer: Inhibited
  Diseases or functions annotation: Cell death: Activated
  Diseases or functions annotation: Cell death of epithelial cells: Activated
  Diseases or functions annotation: Cell death of tumor cell lines: Inhibited
  Diseases or functions annotation: Development of sensory organ: Activated
  Diseases or functions annotation: Digestive organ tumor: Inhibited
  Diseases or functions annotation: Extracranial solid tumor: Activated
  Diseases or functions annotation: Failure of kidney: Activated
  Diseases or functions annotation: Formation of eye: Activated
  Diseases or functions annotation: Gastrointestinal tumor: Inhibited
  Diseases or functions annotation: Glucose metabolism disorder: Activated
  Diseases or functions annotation: Hematologic cancer: Inhibited
  Diseases or functions annotation: Hematologic cancer of cells: Inhibited
  Diseases or functions annotation: Hematopoietic neoplasm: Inhibited
  Diseases or functions annotation: Intestinal tumor: Inhibited
  Diseases or functions annotation: Lymphatic system tumor: Inhibited
  Diseases or functions annotation: Lymphocytic cancer: Inhibited
  Diseases or functions annotation: Lymphocytic neoplasm: Inhibited
  Diseases or functions annotation: Lymphoid cancer: Inhibited
  Diseases or functions annotation: Lymphoma: Inhibited
  Diseases or functions annotation: Lymphoproliferative disorder: Inhibited
  Diseases or functions annotation: Lymphoreticular neoplasm: Inhibited
  Diseases or functions annotation: Morbidity or mortality: Inhibited
  Diseases or functions annotation: Necrosis: Activated
  Diseases or functions annotation: Necrosis of epithelial tissue: Activated
  Diseases or functions annotation: Neoplasia of leukocytes: Inhibited
  Diseases or functions annotation: Obesity: Activated
  Diseases or functions annotation: Organismal death: Inhibited
  Diseases or functions annotation: Peripheral vascular disease: Activated
  Diseases or functions annotation: Renal impairment: Activated
  Diseases or functions annotation: Sensory system development: Inhibited
  Diseases or functions annotation: Skin lesion: Inhibited
  Diseases or functions annotation: Skin tumor: Inhibited
After 7 days, TBI: Inhibited
  Diseases or functions annotation: Abdominal adenocarcinoma: Activated
  Diseases or functions annotation: Abdominal cancer: Inhibited
  Diseases or functions annotation: Abdominal carcinoma: Inhibited
  Diseases or functions annotation: Abdominal neoplasm: Activated
  Diseases or functions annotation: Adenocarcinoma: Inhibited
  Diseases or functions annotation: Angiogenesis: Activated
  Diseases or functions annotation: Breast or pancreatic cancer: Inhibited
  Diseases or functions annotation: Cancer: Activated
  Diseases or functions annotation: Cancer of cells: Activated
  Diseases or functions annotation: Cancer of secretory structure: Activated
  Diseases or functions annotation: Carcinoma: Inhibited
  Diseases or functions annotation: Cell cycle progression: Activated
  Diseases or functions annotation: Cell movement: Activated
  Diseases or functions annotation: Cell movement of endothelial cells: Activated
  Diseases or functions annotation: Cell movement of myeloid cells: Activated
  Diseases or functions annotation: Cell movement of tumor cell lines: Activated
  Diseases or functions annotation: Cell survival: Activated
  Diseases or functions annotation: Cell viability: Activated
  Diseases or functions annotation: Cell viability of tumor cell lines: Activated
  Diseases or functions annotation: Cellular homeostasis: Activated
  Diseases or functions annotation: Chemotaxis: Activated
  Diseases or functions annotation: Concentration of lipid: Inhibited
  Diseases or functions annotation: Development of body axis: Activated
  Diseases or functions annotation: Development of body trunk: Activated
  Diseases or functions annotation: Development of connective tissue cells: Activated
  Diseases or functions annotation: Development of epithelial tissue: Activated
  Diseases or functions annotation: Development of genitourinary system: Inhibited
  Diseases or functions annotation: Development of head: Activated
  Diseases or functions annotation: Development of neurons: Activated
  Diseases or functions annotation: Development of vasculature: Activated
  Diseases or functions annotation: Differentiation of bone: Activated
  Diseases or functions annotation: Differentiation of bone cells: Activated
  Diseases or functions annotation: Differentiation of connective tissue cells: Activated
  Diseases or functions annotation: Digestive system cancer: Inhibited
  Diseases or functions annotation: Endocrine gland tumor: Inhibited
  Diseases or functions annotation: Expression of RNA: Activated
  Diseases or functions annotation: Genital tumor: Activated
  Diseases or functions annotation: Genitourinary carcinoma: Activated
  Diseases or functions annotation: Genitourinary tumor: Activated
  Diseases or functions annotation: Growth of connective tissue: Inhibited
  Diseases or functions annotation: Growth of epithelial tissue: Inhibited
  Diseases or functions annotation: Growth of tumor: Activated
  Diseases or functions annotation: Head and neck cancer: Inhibited
  Diseases or functions annotation: Head and neck tumor: Inhibited
  Diseases or functions annotation: Invasion of cells: Activated
  Diseases or functions annotation: Leukocyte migration: Activated
  Diseases or functions annotation: Malignant genitourinary solid tumor: Activated
  Diseases or functions annotation: Malignant solid tumor: Activated
  Diseases or functions annotation: Microtubule dynamics: Activated
  Diseases or functions annotation: Migration of cells: Activated
  Diseases or functions annotation: Migration of endothelial cells: Activated
  Diseases or functions annotation: Neoplasia of cells: Activated
  Diseases or functions annotation: Non-hematological solid tumor: Activated
  Diseases or functions annotation: Non-melanoma solid tumor: Activated
  Diseases or functions annotation: Nonhematologic malignant neoplasm: Inhibited
